Test results: patent publication US20240059688A1, “CONOLIDINE ANALOGUES AS SELECTIVE ACKR3 MODULATORS FOR THE TREATMENT OF CANCER” (Luxembourg Institute of Health (LIH), priority 2020, published 2024)

Assays:
Assay type in all cases: cell-based
NOP = molecular target: T1, NOP (Homo sapiens, UniProt P41146); test: NanoBiT-based β-arrestin-2 recruitment assay, NOP; settings: concentration range 0.15 nM to 80 μM; reference Nociceptin
T1 construct: expressed in transfected cells; host or cells: U87
T1 sequence (P41146 whole entry): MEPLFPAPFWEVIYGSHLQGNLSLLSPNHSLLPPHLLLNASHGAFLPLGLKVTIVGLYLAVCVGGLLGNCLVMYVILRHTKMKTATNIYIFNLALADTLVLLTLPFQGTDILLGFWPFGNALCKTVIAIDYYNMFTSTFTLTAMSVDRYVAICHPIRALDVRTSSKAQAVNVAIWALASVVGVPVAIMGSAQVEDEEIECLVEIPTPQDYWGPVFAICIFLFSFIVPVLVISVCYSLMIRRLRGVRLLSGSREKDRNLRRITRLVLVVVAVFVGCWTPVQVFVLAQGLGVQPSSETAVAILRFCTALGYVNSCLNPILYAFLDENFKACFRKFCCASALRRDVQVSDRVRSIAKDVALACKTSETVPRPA
Experimental: (§1) The ability of the different molecules to activate the four opioid receptors MOR, DOR, KOR and NOP that are known to mediate in vivo analgesic effects was tested using the NanoBiT-based β-arrestin-2 recruitment assay in a concentration range of 0.15 nM to 80 μM. For each of these receptors a reference ligand corresponding to an endogenous opioid peptide i.e. Met-enkephalin, BAM22, Dynorphin A and Nociceptin, respectively was included.
(§2) Ligand-induced β-arrestin recruitment to chemokine and opioid receptors was monitored by NanoLuc complementation assay (NanoBiT, Promega). In brief, 1.2×10^6 U87 cells were plated in 10-cm culture dishes and 48 hours later co-transfected with pNBe vectors encoding GPCRs (ACKR3, MOR, DOR, KOR, or NOP) C-terminally tagged with SmBiT and human β-arrestin-1 (arrestin-2) or β-arrestin-2 (arrestin-3) N-terminally fused to LgBiT. 48 hours post-transfection cells were harvested, incubated 25 minutes at 37° C. with Nano-Glo Live Cell substrate diluted 200-fold and distributed into white 96-well plates (5×10^4 cells per well). Ligand-induced, β-arrestin to GPCRs was evaluated with a Mithras LB940 luminometer (Berthold Technologies, running on MicroWin 2010 5.19 software (Mikrotek Laborsysteme)) for 20 minutes.
(§3) For concentration-response curves (FIG. 2), the signal recorded with a saturating concentration of full agonist for each receptor was set as 100%. […]

ACKR4 = molecular target: T2, ACKR4 (Homo sapiens, UniProt Q9NPB9); test: NanoBiT β-arrestin-1 recruitment, receptor selectivity panel, ACKR4; settings: higher concentrations (3 μM, 10 μM); FIG. 3 sections B and C
T2 construct: expressed in transfected cells; host or cells: U87
T2 sequence (Q9NPB9 1-350): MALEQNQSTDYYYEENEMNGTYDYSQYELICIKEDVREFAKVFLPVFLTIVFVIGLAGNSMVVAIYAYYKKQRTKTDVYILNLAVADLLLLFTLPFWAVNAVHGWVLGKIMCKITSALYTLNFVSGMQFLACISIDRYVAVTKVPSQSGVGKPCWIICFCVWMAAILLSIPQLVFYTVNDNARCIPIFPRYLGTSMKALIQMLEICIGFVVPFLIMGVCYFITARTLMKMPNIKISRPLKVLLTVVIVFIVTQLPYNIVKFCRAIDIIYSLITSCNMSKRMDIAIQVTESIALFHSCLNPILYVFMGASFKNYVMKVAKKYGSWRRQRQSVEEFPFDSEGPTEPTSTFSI
Experimental: (§4) To further assess the selectivity profile of the compounds of the invention towards ACKR3, the ability to activate the 21 classical and 4 atypical chemokines receptors and related receptors was tested using the NanoBiT assay based β-arrestin-1 recruitment described previously. The 4 classical opioid receptors described above were also included in the experimental setup. The compounds WW-1 (conolidine) and WW-12 were tested at three different concentrations, 1 μM, 3 μM and 10 μM.
(§5) This possible off-target effect was further characterized by comparing the ability of the two molecules to activate receptors ACKR4, CX3CR1 and CCR3 with reference ligands for the receptors, namely CCL19, CX3CL1 and CCL13.
(§6) Ligand-induced β-arrestin recruitment to chemokine and opioid receptors was monitored by NanoLuc complementation assay (NanoBiT, Promega). […] Ligand-induced, β-arrestin to GPCRs was evaluated with a Mithras LB940 luminometer (Berthold Technologies, running on MicroWin 2010 5.19 software (Mikrotek Laborsysteme)) for 20 minutes.
(§7) For single dose screening experiments on all chemokine receptors(FIG. 3), the results are represented as percentage of signal monitored with 100 nM of one known agonist chemokine listed in the IUPHAR repository of chemokine receptor ligands which was added as positive control.

CX3CR1 = molecular target: T3, CX3CR1 (Homo sapiens, UniProt P49238); test: NanoBiT β-arrestin-1 recruitment, receptor selectivity panel, CX3CR1; settings: higher concentrations (3 μM, 10 μM); FIG. 3 sections B and C
T3 construct: expressed in transfected cells; host or cells: U87
T3 sequence (P49238 1-355): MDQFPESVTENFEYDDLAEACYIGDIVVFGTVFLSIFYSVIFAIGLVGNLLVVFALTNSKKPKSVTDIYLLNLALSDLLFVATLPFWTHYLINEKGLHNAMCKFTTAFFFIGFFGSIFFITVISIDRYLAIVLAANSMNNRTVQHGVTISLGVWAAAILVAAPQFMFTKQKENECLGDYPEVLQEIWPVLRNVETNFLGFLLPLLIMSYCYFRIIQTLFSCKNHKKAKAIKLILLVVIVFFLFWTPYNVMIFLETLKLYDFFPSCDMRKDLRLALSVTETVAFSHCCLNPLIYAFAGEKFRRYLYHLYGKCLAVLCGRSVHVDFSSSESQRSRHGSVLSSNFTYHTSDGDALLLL
Experimental: as §4, §5, §6, §7

DOR = DOR (Homo sapiens, UniProt P41143); test: NanoBiT-based β-arrestin-2 recruitment assay, DOR; design: expressed in transfected cells; host or cells: U87; settings: concentration range 0.15 nM to 80 μM; reference Met-enkephalin
Sequence of DOR (P41143 whole entry): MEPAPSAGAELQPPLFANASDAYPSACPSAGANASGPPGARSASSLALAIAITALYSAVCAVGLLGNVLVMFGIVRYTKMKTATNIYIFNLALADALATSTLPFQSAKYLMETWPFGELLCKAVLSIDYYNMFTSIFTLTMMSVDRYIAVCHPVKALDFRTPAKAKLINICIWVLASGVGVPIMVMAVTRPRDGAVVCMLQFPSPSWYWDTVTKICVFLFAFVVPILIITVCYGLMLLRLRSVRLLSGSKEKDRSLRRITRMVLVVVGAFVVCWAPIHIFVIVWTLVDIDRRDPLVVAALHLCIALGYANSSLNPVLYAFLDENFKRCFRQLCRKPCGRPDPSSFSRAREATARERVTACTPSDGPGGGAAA
Experimental: as §1, §2, §3

KOR = KOR (Homo sapiens, UniProt P41145); test: NanoBiT-based β-arrestin recruitment assay, KOR; design: expressed in transfected cells; host or cells: U87; settings: concentration range 0.15 nM to 80 μM; reference Dynorphin A
Sequence of KOR (P41145 whole entry): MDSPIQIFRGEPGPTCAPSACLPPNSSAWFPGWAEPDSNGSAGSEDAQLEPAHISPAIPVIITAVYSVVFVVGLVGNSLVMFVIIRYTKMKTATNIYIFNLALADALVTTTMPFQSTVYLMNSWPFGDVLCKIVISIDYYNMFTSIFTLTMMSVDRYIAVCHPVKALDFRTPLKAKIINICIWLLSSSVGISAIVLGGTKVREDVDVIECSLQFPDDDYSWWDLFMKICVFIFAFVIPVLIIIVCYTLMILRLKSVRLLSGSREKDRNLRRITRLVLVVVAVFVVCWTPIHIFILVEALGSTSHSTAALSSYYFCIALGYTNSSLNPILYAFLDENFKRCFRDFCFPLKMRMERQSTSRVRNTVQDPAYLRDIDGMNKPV
Experimental: as §1, §2, §3

ACKR3 = ACKR3 (Homo sapiens, UniProt P25106); test: NanoBiT β-arrestin-1 recruitment, receptor selectivity panel, ACKR3; design: expressed in transfected cells; host or cells: U87; settings: for modulation of ACKR3 in comparison with opioid receptor reference molecules (β-arrestin1 recruitment): NanoBiT, ACKR3 versus MOR, DOR, KOR, NOP, FIG. 5; for activation of ACKR3 (β-arrestin-1 recruitment) in receptor panel: concentration of 1 μM, FIG. 3 section A
Sequence of ACKR3 (P25106 whole entry): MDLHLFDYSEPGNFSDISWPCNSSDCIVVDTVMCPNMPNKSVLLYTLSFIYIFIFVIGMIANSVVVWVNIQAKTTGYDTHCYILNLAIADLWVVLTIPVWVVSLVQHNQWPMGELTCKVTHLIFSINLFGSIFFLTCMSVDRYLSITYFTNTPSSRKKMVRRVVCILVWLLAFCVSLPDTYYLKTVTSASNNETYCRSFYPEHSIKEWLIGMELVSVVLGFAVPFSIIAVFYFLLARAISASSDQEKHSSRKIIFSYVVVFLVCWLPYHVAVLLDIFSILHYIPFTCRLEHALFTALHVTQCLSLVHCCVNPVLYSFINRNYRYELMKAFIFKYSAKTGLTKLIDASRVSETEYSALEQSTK
Sequence of ACKR3 (P49407 whole entry partner): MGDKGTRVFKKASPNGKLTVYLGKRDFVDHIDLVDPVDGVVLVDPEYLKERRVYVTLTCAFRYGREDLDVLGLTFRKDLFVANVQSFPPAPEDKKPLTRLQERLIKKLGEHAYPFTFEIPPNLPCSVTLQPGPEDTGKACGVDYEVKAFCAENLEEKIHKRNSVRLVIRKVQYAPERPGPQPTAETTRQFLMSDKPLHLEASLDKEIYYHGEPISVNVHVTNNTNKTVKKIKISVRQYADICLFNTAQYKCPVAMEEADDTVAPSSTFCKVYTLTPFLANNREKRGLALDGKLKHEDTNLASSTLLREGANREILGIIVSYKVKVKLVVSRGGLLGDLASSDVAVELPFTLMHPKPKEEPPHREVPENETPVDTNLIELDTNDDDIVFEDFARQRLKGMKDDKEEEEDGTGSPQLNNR
Experimental: as §4
The ability of the compounds of the invention to activate ACKR3 and classical opioid receptors with reference synthetic molecules and approved pain medications such as morphine, fentanyl or buprenorphine that are known to modulate the classical opioid receptors MOR, DOR, KOR and NOP was also tested in NanoBiT based β-arerstin1 recruitment assay. […] The results are depicted in FIG. 5.
as §2, §7

| activation of NOP (β-arrestin-2 recruitment) (NOP) | activation of ACKR4 (β-arrestin-1 recruitment) in receptor panel (ACKR4) | activation of CX3CR1 (β-arrestin-1 recruitment) in receptor panel (CX3CR1) | activation of DOR (β-arrestin-2 recruitment) (DOR) | activation of KOR (β-arrestin recruitment) (KOR) | modulation of ACKR3 in comparison with opioid receptor reference molecules (β-arrestin1 recruitment) (ACKR3) | activation of ACKR3 (β-arrestin-1 recruitment) in receptor panel (ACKR3) | Structure (SMILES) |
| --- | --- | --- | --- | --- | --- | --- | --- |
| not active | weak activation | weak activation | not active | not active | specific ACKR3 activators | activated ACKR3 | C/C=C1/CN2CC[C@H]1C(=O)c1[nH]c3ccccc3c1C2 [WW-1, (4E,5R)-4-ethylidene-1,4,5,7-tetrahydro-2,5-ethanoazocino[4,3-b]indol-6(3H)-one] |
| not active | weak activation | weak activation | not active | not active | specific ACKR3 activators | activated ACKR3 | C/C=C1/CN(CCCCC)CC[C@H]1C(=O)c1cc2ccccc2[nH]1 [WW-12, [(3E,4R)-3-ethylidene-1-pentylpiperidin-4-yl](1H-indol-2-yl)methanone] |
